In paper PMC3032545, “A c-di-GMP Effector System Controls Cell Adhesion by Inside-Out Signaling and Surface Protein Cleavage” (PLoS Biology, 2011):

Target: T1, LapD (c-di-GMP receptor) with LapG (periplasmic protease, read-out) (Pseudomonas fluorescens, UniProt Q3KK31)
T1 construct: full-length native LapD and LapG in clarified Pf0-1 cell extracts; LapD mutants from plasmid pMQ72 in the lapD deletion strain; with Periplasmic cysteine protease LapG (transglutaminase-like cysteine peptidase, DUF920)
T1 sequence (Q3KK31 1-648): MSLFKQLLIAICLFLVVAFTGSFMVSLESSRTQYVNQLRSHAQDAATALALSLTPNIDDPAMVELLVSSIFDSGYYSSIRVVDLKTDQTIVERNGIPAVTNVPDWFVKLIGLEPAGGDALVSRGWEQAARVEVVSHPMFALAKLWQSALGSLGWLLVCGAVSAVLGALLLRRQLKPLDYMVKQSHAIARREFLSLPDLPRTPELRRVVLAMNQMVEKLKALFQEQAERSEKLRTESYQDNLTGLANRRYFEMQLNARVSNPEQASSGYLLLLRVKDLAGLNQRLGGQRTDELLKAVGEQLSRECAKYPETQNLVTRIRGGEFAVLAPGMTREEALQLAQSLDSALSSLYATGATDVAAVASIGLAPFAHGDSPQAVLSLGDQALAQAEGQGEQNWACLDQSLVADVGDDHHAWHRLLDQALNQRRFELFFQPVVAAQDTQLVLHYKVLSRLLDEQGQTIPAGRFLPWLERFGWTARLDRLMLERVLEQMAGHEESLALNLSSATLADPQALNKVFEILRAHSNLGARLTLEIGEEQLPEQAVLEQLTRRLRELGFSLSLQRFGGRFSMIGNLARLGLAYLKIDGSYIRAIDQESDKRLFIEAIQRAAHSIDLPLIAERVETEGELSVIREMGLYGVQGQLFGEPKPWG
T1 sequence (Q3KK32 50-251 partner): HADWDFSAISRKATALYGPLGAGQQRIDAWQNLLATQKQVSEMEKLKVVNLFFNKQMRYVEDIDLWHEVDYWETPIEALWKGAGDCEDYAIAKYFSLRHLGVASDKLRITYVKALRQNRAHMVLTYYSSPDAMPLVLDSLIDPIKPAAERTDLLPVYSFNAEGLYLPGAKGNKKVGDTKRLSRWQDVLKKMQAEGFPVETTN
Assay: inhibition of LapG cleavage of N-Term-LapA in cell extract, anti-His Western blot densitometry
Assay type: biochemical
Conditions: LapD-dependent: c-di-GMP binds LapD EAL domain, not LapG; wild-type Pf0-1 extract; 30 pmol N-Term-LapA, 100 min, room temperature

## Nc1nc2c(ncn2[C@@H]2O[C@@H]3CO[P@](=O)(O)O[C@H]4[C@@H](O)[C@H](n5cnc6c(=O)[nH]c(N)nc65)O[C@@H]4CO[P@](=O)(O)O[C@H]3[C@H]2O)c(=O)[nH]1 [c-di-GMP]
  IC50: 2300 ± 1100 nM
